Values quoted from earlier work, collected in PMC5131319, “Occurrence, temporal trends, and half-lives of perfluoroalkyl acids (PFAAs) in occupational workers in China” (Scientific Reports, 2016).

Conditions: humans; cited from earlier work

Structure (SMILES): O=S(=O)(O)C(F)(F)C(F)(F)C(F)(F)C(F)(F)F [PFBS, perfluorobutanesulfonate]
- Half-life based on serum concentrations: 26 days
